# Measured values taken from EPA's ToxRefDB 2.
# Tests used:
# dog [1] = details: Chronic toxicity, beagle, Oral, Feed, dose end: 12 month, group: systemic
# rat [2] = details: Prenatal developmental toxicity study, other, Oral, Feed, dose end: 15 GD
# rat [3] = details: Multigenerational reproductive toxicity study, other, Oral, Feed, dose end: 2 generation
# rabbit [4] = details: Prenatal developmental toxicity study, new zealand white, Oral, Gavage/Intubation, dose end: 19 GD
# mouse [5] = details: Carcinogenicity; cd1; Oral; Feed; dose end: 24 month; group: systemic; systemic / hematology / methemoglobin / methemoglobin + systemic / in life observation / body weight / body weight + systemic / in life …
# rat [6] = details: Multigenerational reproductive toxicity study, sprague dawley, Oral, Feed, dose end: 3 generation
# rat [7] = details: Combined chronic toxicity/carcinogenicity; sprague dawley; Oral; Feed; dose end: 2 year; group: systemic; systemic / in life observation / body weight / body weight + systemic / in life observation / body weight / body weight gain + systemic / …
# dog [8] = details: Chronic toxicity; beagle; Oral; Capsule; dose end: 52 week; group: systemic; systemic / clinical chemistry / alkaline phosphatase (alp/alk) / alkaline phosphatase (alp/alk) + systemic / clinical chemistry / …
# rat [9] = details: Prenatal developmental toxicity study, wistar, Oral, Gavage/Intubation, dose end: 15 GD
# rat [10] = details: Subchronic oral toxicity in rodents, wistar, [Not Specified], dose end: 90 day, group: systemic
# rat [11] = details: Multigenerational reproductive toxicity study, wistar, Oral, Feed, dose end: 2 generation
# mouse [12] = details: Combined chronic toxicity/carcinogenicity, cd1, Oral, Feed, dose end: 2 year, group: systemic
# rat [13] = details: Combined chronic toxicity/carcinogenicity, sprague dawley, Oral, Feed, dose end: 2 year, group: systemic
# rabbit [14] = details: Prenatal developmental toxicity study, new zealand white, Oral, Gavage/Intubation, dose end: 19 GD; remark: listed apart in the source
# [15] = systemic / hematology / methemoglobin / methemoglobin + systemic / hematology / sulphemoglobin / sulphemoglobin
# [16] = systemic / hematology / methemoglobin / methemoglobin + systemic / hematology / sulphemoglobin / sulphemoglobin + systemic / clinical …
# [17] = group: developmental, developmental / developmental malformation / bone / bipartite ossification + developmental / developmental malformation / bone / delayed …
# [18] = group: maternal, systemic / in life observation / body weight / body weight + systemic / in life observation / food consumption / food consumption + …
# [19] = group: offspring, systemic / in life observation / body weight / offspring (pup) weight + developmental / developmental malformation / diaphragm / hernia + …
# [20] = group: parental, systemic / in life observation / body weight / body weight gain + systemic / in life observation / body weight / body weight + systemic / in…
# [21] = group: reproductive, reproductive / offspring survival early / birth index / live birth index
# [22] = group: developmental, developmental / developmental malformation / bone / [other] + developmental / developmental malformation / bone / hole(s) + developmental / …
# [23] = group: maternal, systemic / in life observation / body weight / body weight gain
# [24] = group: maternal, systemic / in life observation / body weight / body weight gain + reproductive / reproductive performance / aborted / aborted + systemic / …
# [25] = group: offspring, developmental / offspring survival late / viability index / viability index + systemic / in life observation / body weight / offspring (pup…
# [26] = group: parental, systemic / in life observation / body weight / body weight + systemic / in life observation / body weight / body weight gain
# [27] = group: reproductive, reproductive / reproductive performance / fertility / fertility
# [28] = group: developmental, developmental / developmental malformation / mouth / jaw / cleft palate
# [29] = group: maternal, systemic / in life observation / body weight / body weight gain + systemic / in life observation / clinical signs / urogenital staining + …
# [30] = systemic / clinical chemistry / aminopyrine-n-demethylase / aminopyrine-n-demethylase + systemic / organ weight / liver / absolute + …
# [31] = systemic / urinalysis / volume / volume
# [32] = group: offspring, systemic / in life observation / clinical signs / red or crusty deposits around eyes, ears, nose, or mouth + systemic / pathology gross / …
# [33] = group: parental, systemic / in life observation / body weight / body weight gain + systemic / in life observation / food consumption / food consumption + …
# [34] = systemic / pathology microscopic / liver / hypertrophy
# [35] = group: developmental, developmental / developmental malformation / bone / short supernumerary + developmental / developmental malformation / bone / full …
# [36] = group: maternal, systemic / in life observation / body weight / body weight + systemic / in life observation / body weight / body weight gain + systemic / in…
structure (smiles),measurement,setting,value
CON(C)C(=O)Nc1ccc(Cl)c(Cl)c1 [Linuron],LEL,dog [1]; [15],3.49 mg/kg/day
same,LOAEL,dog [1]; [15],3.49 mg/kg/day
same,NEL,dog [1]; [16],0.77 mg/kg/day
same,NOAEL,dog [1]; [16],0.77 mg/kg/day
same,LEL,rat [2]; [17],50 mg/kg/day
same,LOAEL,rat [2]; [17],50 mg/kg/day
same,NEL,rat [2]; [17],12 mg/kg/day
same,NOAEL,rat [2]; [17],12 mg/kg/day
same,LOAEL,"rat [2]; group: maternal, systemic / in life observation / body weight / body weight + systemic / in life observation / food consumption / food consumption",50 mg/kg/day
same,LEL,rat [2]; [18],50 mg/kg/day
same,NEL,rat [2]; [18],12 mg/kg/day
same,NOAEL,rat [2]; [18],12 mg/kg/day
same,LEL,"rat [3]; group: offspring, systemic / in life observation / body weight / offspring (pup) weight",7.77 mg/kg/day
same,LOAEL,rat [3]; [19],> 54 mg/kg/day
same,NEL,rat [3]; [19],0.948 mg/kg/day
same,NOAEL,rat [3]; [19],≥ 54 mg/kg/day
same,LOAEL,"rat [3]; group: parental, systemic / in life observation / body weight / body weight gain",5.83 mg/kg/day
same,NEL,rat [3]; [20],0.736 mg/kg/day
same,NOAEL,rat [3]; [20],0.736 mg/kg/day
same,LEL,"rat [3]; group: parental, systemic / in life observation / body weight / body weight gain + systemic / in life observation / food consumption / food consumption",5.83 mg/kg/day
same,LEL,rat [3]; [21],54 mg/kg/day
same,LOAEL,rat [3]; [21],> 54 mg/kg/day
same,NEL,rat [3]; [21],7.77 mg/kg/day
same,NOAEL,rat [3]; [21],≥ 54 mg/kg/day
same,LEL,rabbit [4]; [22],100 mg/kg/day
same,LOAEL,rabbit [4]; [22],100 mg/kg/day
same,NEL,rabbit [4]; [22],25 mg/kg/day
same,NOAEL,rabbit [4]; [22],25 mg/kg/day
same,LEL,rabbit [4]; [23],25 mg/kg/day
same,LOAEL,rabbit [4]; [23],25 mg/kg/day
same,NEL,rabbit [4]; [24],5 mg/kg/day
same,NOAEL,rabbit [4]; [24],5 mg/kg/day
same,LEL,mouse [5],261 mg/kg/day
same,LOAEL,mouse [5],261 mg/kg/day
same,NEL,mouse [5],23 mg/kg/day
same,NOAEL,mouse [5],23 mg/kg/day
same,LEL,rat [6]; [25],44 mg/kg/day
same,LOAEL,rat [6]; [25],44 mg/kg/day
same,NEL,rat [6]; [25],9 mg/kg/day
same,NOAEL,rat [6]; [25],9 mg/kg/day
same,LEL,"rat [6]; group: parental, systemic / in life observation / body weight / body weight",9 mg/kg/day
same,LOAEL,"rat [6]; group: parental, systemic / in life observation / body weight / body weight + systemic / hematology / erythrocyte (rbc) count differential / erythrocyte (rbc…",10 mg/kg/day
same,NEL,rat [6]; [26],2 mg/kg/day
same,NOAEL,rat [6]; [26],2 mg/kg/day
same,LEL,rat [6]; [27],44 mg/kg/day
same,LOAEL,rat [6]; [27],44 mg/kg/day
same,NEL,rat [6]; [27],9 mg/kg/day
same,NOAEL,rat [6]; [27],9 mg/kg/day
same,LEL,rat [7],5.11 mg/kg/day
same,LOAEL,rat [7],5.11 mg/kg/day
same,NEL,rat [7],2.09 mg/kg/day
same,NOAEL,rat [7],2.09 mg/kg/day
CC(C)(C)[C@H](O)[C@H](Cc1ccc(Cl)cc1)n1cncn1 [Paclobutrazol],LEL,dog [8],75 mg/kg/day
same,LOAEL,dog [8],75 mg/kg/day
same,NEL,dog [8],15 mg/kg/day
same,NOAEL,dog [8],15 mg/kg/day
same,LOAEL,"rat [9]; group: developmental, developmental / developmental malformation / bone / incomplete ossification + developmental / developmental malformation / bone / unossified",100 mg/kg/day
same,NOAEL,"rat [9]; group: developmental, developmental / developmental malformation / bone / incomplete ossification + developmental / developmental malformation / bone / unossified…",40 mg/kg/day
same,LEL,rat [9]; [28],40 mg/kg/day
same,NEL,rat [9]; [28],< 40 mg/kg/day
same,LEL,rat [9]; [23],100 mg/kg/day
same,LOAEL,rat [9]; [23],100 mg/kg/day
same,NEL,rat [9]; [29],40 mg/kg/day
same,NOAEL,rat [9]; [29],40 mg/kg/day
same,LOAEL,rat [10]; [30],62.5 mg/kg/day
same,NOAEL,rat [10]; [30],12.5 mg/kg/day
same,LEL,rat [10]; [31],2.5 mg/kg/day
same,NEL,rat [10]; [31],< 2.5 mg/kg/day
same,LEL,rat [11]; [32],12.5 mg/kg/day
same,LOAEL,rat [11]; [32],12.5 mg/kg/day
same,NEL,rat [11]; [32],2.5 mg/kg/day
same,NOAEL,rat [11]; [32],2.5 mg/kg/day
same,NEL,"rat [11]; group: parental, systemic / in life observation / body weight / body weight + systemic / in life observation / body weight / body weight gain + systemic / in…",2.5 mg/kg/day
same,LOAEL,rat [11]; [33],> 62.5 mg/kg/day
same,NOAEL,rat [11]; [33],≥ 62.5 mg/kg/day
same,LEL,"rat [11]; group: parental, systemic / in life observation / clinical signs / red or crusty deposits around eyes, ears, nose, or mouth + systemic / pathology gross / …",12.5 mg/kg/day
same,LEL,mouse [12]; systemic / organ weight / kidney / relative to body weight,18.8 mg/kg/day
same,NEL,mouse [12]; systemic / organ weight / kidney / relative to body weight + systemic / organ weight / kidney / absolute + systemic / organ weight / liver…,3.75 mg/kg/day
same,LOAEL,mouse [12]; systemic / pathology microscopic / liver / steatosis,112 mg/kg/day
same,NOAEL,mouse [12]; systemic / pathology microscopic / liver / steatosis + systemic / organ weight / liver / absolute + systemic / organ weight / liver / …,18.8 mg/kg/day
same,LEL,rat [13]; systemic / clinical chemistry / triglycerides / triglycerides,12.5 mg/kg/day
same,LOAEL,rat [13]; [34],62.5 mg/kg/day
same,NOAEL,rat [13]; [34],12.5 mg/kg/day
same,NEL,rat [13]; systemic / pathology microscopic / liver / hypertrophy + systemic / clinical chemistry / triglycerides / triglycerides + systemic / …,2.5 mg/kg/day
same,LEL,rabbit [14]; [35],125 mg/kg/day
same,LOAEL,rabbit [14]; [35],125 mg/kg/day
same,NEL,rabbit [14]; [35],75 mg/kg/day
same,NOAEL,rabbit [14]; [35],75 mg/kg/day
same,LEL,rabbit [14]; [36],125 mg/kg/day
same,LOAEL,rabbit [14]; [36],125 mg/kg/day
same,NEL,rabbit [14]; [36],75 mg/kg/day
same,NOAEL,rabbit [14]; [36],75 mg/kg/day
